Measurements: PubChem BioAssay (NCI)
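Compound exposure: 48 hours, 5 concentrations, 96-well plates. The concentration for full growth arrest is given as TGI.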

Key:
Assay in all cases: growth of human tumour cells (NCI), 48 h
HOP-92 NSCLC = test system: HOP-92 NSCLC
IGROV1 ovarian = test system: IGROV1 ovarian
MALME-3M melanoma = test system: MALME-3M melanoma
MCF7 breast = test system: MCF7 breast
MOLT-4 leukemia = test system: MOLT-4 leukemia
OVCAR-8 ovarian = test system: OVCAR-8 ovarian
SF-268 CNS = test system: SF-268 CNS
SNB-75 CNS = test system: SNB-75 CNS
SW-620 colon = test system: SW-620 colon

`Nc1cc(N2CCCC2)nc(=O)n1Cc1ccccc1` gave a TGI (HOP-92 NSCLC) greater than 100 µM, a TGI (IGROV1 ovarian) greater than 100 µM and a TGI (MALME-3M melanoma) greater than 100 µM. For the same compound, the TGI (MCF7 breast) was greater than 100 µM, the TGI (MOLT-4 leukemia) was greater than 100 µM and the TGI (OVCAR-8 ovarian) was greater than 100 µM. The TGI (SF-268 CNS) was greater than 100 µM, the TGI (SNB-75 CNS) was greater than 100 µM and the TGI (SW-620 colon) was greater than 100 µM.
`O=C1/C(=C2\Sc3c(ccc(Cl)c3Cl)C2=O)Sc2c1ccc(Cl)c2Cl` gave a TGI (HOP-92 NSCLC) greater than 100 µM, a TGI (IGROV1 ovarian) greater than 100 µM and a TGI (MALME-3M melanoma) greater than 100 µM. It also gave a TGI (MCF7 breast) greater than 100 µM, a TGI (MOLT-4 leukemia) greater than 100 µM and a TGI (OVCAR-8 ovarian) greater than 100 µM. The TGI (SF-268 CNS) was greater than 100 µM, the TGI (SNB-75 CNS) was greater than 100 µM and the TGI (SW-620 colon) was greater than 100 µM.
`[N-]=[N+]=Nc1ccc(CNc2cc(=O)[nH]c(=O)[nH]2)cc1` was tested, and the TGI (HOP-92 NSCLC) was greater than 100 µM, the TGI (IGROV1 ovarian) was greater than 100 µM and the TGI (MALME-3M melanoma) was greater than 100 µM. For the same compound, the TGI (MCF7 breast) was greater than 100 µM, the TGI (MOLT-4 leukemia) was greater than 100 µM and the TGI (OVCAR-8 ovarian) was greater than 100 µM. The TGI (SF-268 CNS) was greater than 100 µM, the TGI (SNB-75 CNS) was greater than 100 µM and the TGI (SW-620 colon) was greater than 100 µM.
With `CC(=O)N1CCN(C23OC4(N5CCN(C(C)=O)CC5)C5C6CC(C7C6C4C72)C53)CC1` (stereo unspecified) the TGI (HOP-92 NSCLC) was greater than 100 µM, the TGI (IGROV1 ovarian) was greater than 100 µM and the TGI (MALME-3M melanoma) was greater than 100 µM. It also gave a TGI (MCF7 breast) greater than 100 µM, a TGI (MOLT-4 leukemia) greater than 100 µM and a TGI (OVCAR-8 ovarian) greater than 100 µM. It also gave a TGI (SF-268 CNS) greater than 100 µM, a TGI (SNB-75 CNS) greater than 100 µM and a TGI (SW-620 colon) greater than 100 µM.
In the case of `Oc1ccc(CCc2cc(O)cc(O)c2)cc1`, the TGI (HOP-92 NSCLC) is reported as greater than 100 µM, the TGI (IGROV1 ovarian) is reported as greater than 100 µM and the TGI (MALME-3M melanoma) is reported as greater than 100 µM. It also gave a TGI (MCF7 breast) greater than 100 µM, a TGI (MOLT-4 leukemia) greater than 100 µM and a TGI (OVCAR-8 ovarian) greater than 100 µM. The TGI (SF-268 CNS) was greater than 100 µM, the TGI (SNB-75 CNS) was greater than 100 µM and the TGI (SW-620 colon) was greater than 100 µM.
In the case of `CC(=Nc1ccncc1)C(C)=Nc1ccncc1`, the TGI (HOP-92 NSCLC) is reported as 83.5 µM, the TGI (IGROV1 ovarian) is reported as 35.3 µM and the TGI (MALME-3M melanoma) is reported as 37.3 µM. For the same compound, the TGI (MCF7 breast) was 38.3 µM, the TGI (MOLT-4 leukemia) was 52.7 µM and the TGI (OVCAR-8 ovarian) was greater than 100 µM. The TGI (SF-268 CNS) was greater than 100 µM, the TGI (SNB-75 CNS) was greater than 100 µM and the TGI (SW-620 colon) was greater than 100 µM.
With `Cn1cnc2c(sc3nc4ccccc4n32)c1=N` the TGI (HOP-92 NSCLC) was greater than 100 µM, the TGI (IGROV1 ovarian) was greater than 100 µM and the TGI (MALME-3M melanoma) was greater than 100 µM. The TGI (MCF7 breast) was greater than 100 µM, the TGI (MOLT-4 leukemia) was greater than 100 µM and the TGI (OVCAR-8 ovarian) was greater than 100 µM. For the same compound, the TGI (SF-268 CNS) was greater than 100 µM, the TGI (SNB-75 CNS) was 73.8 µM and the TGI (SW-620 colon) was greater than 100 µM.
`CC(C)OP(=O)(OC(C)C)C(C(C)C)N(C)/C(F)=N/C(F)(F)F` (stereo unspecified) showed a TGI (HOP-92 NSCLC) greater than 100 µM, a TGI (IGROV1 ovarian) greater than 100 µM and a TGI (MALME-3M melanoma) greater than 100 µM. It also gave a TGI (MCF7 breast) greater than 100 µM, a TGI (MOLT-4 leukemia) greater than 100 µM and a TGI (OVCAR-8 ovarian) greater than 100 µM. It also gave a TGI (SF-268 CNS) greater than 100 µM, a TGI (SNB-75 CNS) greater than 100 µM and a TGI (SW-620 colon) greater than 100 µM.
With `O=C1c2cccc3cccc(c23)C(=O)N1CCCNOCCONCCCN1C(=O)c2cccc3cccc(c23)C1=O` the TGI (HOP-92 NSCLC) was greater than 100 µM, the TGI (IGROV1 ovarian) was greater than 100 µM and the TGI (MALME-3M melanoma) was greater than 100 µM. The TGI (MCF7 breast) was greater than 100 µM, the TGI (MOLT-4 leukemia) was greater than 100 µM and the TGI (OVCAR-8 ovarian) was greater than 100 µM. It also gave a TGI (SF-268 CNS) greater than 100 µM, a TGI (SNB-75 CNS) greater than 100 µM and a TGI (SW-620 colon) greater than 100 µM.
Work on `COc1ccc(OC)c2c1C1CCC(=O)N1CN2C(C)=O` (stereo unspecified) yielded a TGI (HOP-92 NSCLC) greater than 100 µM, a TGI (IGROV1 ovarian) greater than 100 µM and a TGI (MALME-3M melanoma) greater than 100 µM. The TGI (MCF7 breast) was greater than 100 µM, the TGI (MOLT-4 leukemia) was greater than 100 µM and the TGI (OVCAR-8 ovarian) was greater than 100 µM. The TGI (SF-268 CNS) was greater than 100 µM, the TGI (SNB-75 CNS) was greater than 100 µM and the TGI (SW-620 colon) was greater than 100 µM.
`Cc1c(NC2(C)C(=O)N(/N=C/c3ccccc3)N=C2c2ccccc2)n[nH]c1-c1ccccc1` (stereo unspecified) was tested, and the TGI (HOP-92 NSCLC) was greater than 100 µM, the TGI (IGROV1 ovarian) was greater than 100 µM and the TGI (MALME-3M melanoma) was greater than 100 µM. It also gave a TGI (MCF7 breast) greater than 100 µM, a TGI (MOLT-4 leukemia) greater than 100 µM and a TGI (OVCAR-8 ovarian) greater than 100 µM. It also gave a TGI (SF-268 CNS) greater than 100 µM, a TGI (SNB-75 CNS) greater than 100 µM and a TGI (SW-620 colon) greater than 100 µM.
`COc1ccc(C2C(C#N)=C(S)N(C3OC(CO)C(O)C(O)C3O)C(c3ccccc3)=C2C(C)=O)cc1` (stereo unspecified) showed a TGI (HOP-92 NSCLC) greater than 100 µM, a TGI (IGROV1 ovarian) greater than 100 µM and a TGI (MALME-3M melanoma) greater than 100 µM. It also gave a TGI (MCF7 breast) greater than 100 µM, a TGI (MOLT-4 leukemia) greater than 100 µM and a TGI (OVCAR-8 ovarian) greater than 100 µM. The TGI (SF-268 CNS) was greater than 100 µM, the TGI (SNB-75 CNS) was 97 µM and the TGI (SW-620 colon) was greater than 100 µM.
`COC(=O)C1(Cc2ccccc2)Cc2ccccc2C1` showed a TGI (HOP-92 NSCLC) of 46.3 µM, a TGI (IGROV1 ovarian) greater than 100 µM and a TGI (MALME-3M melanoma) of 35.4 µM. It also gave a TGI (MCF7 breast) greater than 100 µM, a TGI (MOLT-4 leukemia) of 41.8 µM and a TGI (OVCAR-8 ovarian) greater than 100 µM. For the same compound, the TGI (SF-268 CNS) was greater than 100 µM, the TGI (SNB-75 CNS) was 96.2 µM and the TGI (SW-620 colon) was greater than 100 µM.
`Cc1ccc(-c2n[nH]c(=O)[nH]2)cc1[N+](=O)[O-]` gave a TGI (HOP-92 NSCLC) greater than 100 µM, a TGI (IGROV1 ovarian) greater than 100 µM and a TGI (MALME-3M melanoma) greater than 100 µM. It also gave a TGI (MCF7 breast) greater than 100 µM, a TGI (MOLT-4 leukemia) greater than 100 µM and a TGI (OVCAR-8 ovarian) greater than 100 µM. The TGI (SF-268 CNS) was greater than 100 µM, the TGI (SNB-75 CNS) was greater than 100 µM and the TGI (SW-620 colon) was greater than 100 µM.
Compound `C=C(C)C1CC=C(C)C2(C1)OCC(C)(C)C(C)O2` (stereo unspecified) has a TGI (HOP-92 NSCLC) of 23.6 µM, a TGI (IGROV1 ovarian) of 48.2 µM and a TGI (MALME-3M melanoma) of 29.5 µM. For the same compound, the TGI (MCF7 breast) was 33.9 µM, the TGI (MOLT-4 leukemia) was 51.2 µM and the TGI (OVCAR-8 ovarian) was 31.7 µM. The TGI (SF-268 CNS) was 70.9 µM, the TGI (SNB-75 CNS) was 48.2 µM and the TGI (SW-620 colon) was 43.2 µM.
`O=c1[nH]c(Nc2cccc(Cl)c2)nc2nc[nH]c12` was tested, and the TGI (HOP-92 NSCLC) was greater than 100 µM, the TGI (IGROV1 ovarian) was greater than 100 µM and the TGI (MALME-3M melanoma) was greater than 100 µM. For the same compound, the TGI (MCF7 breast) was greater than 100 µM, the TGI (MOLT-4 leukemia) was greater than 100 µM and the TGI (OVCAR-8 ovarian) was greater than 100 µM. It also gave a TGI (SF-268 CNS) greater than 100 µM, a TGI (SNB-75 CNS) greater than 100 µM and a TGI (SW-620 colon) greater than 100 µM.
Work on `O=C(N[C@H]1c2ccsc2/C(=N/O)[C@H]1O)C(F)(F)F` yielded a TGI (HOP-92 NSCLC) greater than 100 µM, a TGI (IGROV1 ovarian) greater than 100 µM and a TGI (MALME-3M melanoma) greater than 100 µM. The TGI (MCF7 breast) was greater than 100 µM, the TGI (MOLT-4 leukemia) was greater than 100 µM and the TGI (OVCAR-8 ovarian) was greater than 100 µM. For the same compound, the TGI (SF-268 CNS) was greater than 100 µM, the TGI (SNB-75 CNS) was greater than 100 µM and the TGI (SW-620 colon) was greater than 100 µM.
`CC(=O)c1cc2c(s1)C(=O)c1ccccc1C2=O` showed a TGI (HOP-92 NSCLC) of 21.6 µM, a TGI (IGROV1 ovarian) of 5.5 µM and a TGI (MALME-3M melanoma) of 2.65 µM. For the same compound, the TGI (MCF7 breast) was 6.77 µM, the TGI (MOLT-4 leukemia) was 8.67 µM and the TGI (OVCAR-8 ovarian) was 5.98 µM. For the same compound, the TGI (SF-268 CNS) was 16 µM, the TGI (SNB-75 CNS) was 23.1 µM and the TGI (SW-620 colon) was 9.67 µM.
`COc1cc2c(/C=C3/C(=O)N(c4ccccc4)c4ccccc43)c(Cl)[nH]c2cc1C` was tested, and the TGI (HOP-92 NSCLC) was greater than 78.4 µM, the TGI (IGROV1 ovarian) was greater than 25.8 µM and the TGI (MALME-3M melanoma) was 19 µM. The TGI (MCF7 breast) was greater than 79 µM, the TGI (MOLT-4 leukemia) was 9 µM and the TGI (OVCAR-8 ovarian) was greater than 31.6 µM. The TGI (SF-268 CNS) was greater than 53.8 µM, the TGI (SNB-75 CNS) was 18.9 µM and the TGI (SW-620 colon) was greater than 100 µM.
